Assay results: patent US20250177391A1, “INHIBITORS OF DDR1 AND DDR2 FOR THE TREATMENT OF ARTHRITIS” (President and Fellows of Harvard College, priority 2022, published 2025)
Converted amounts (≈) assume the structure as drawn. “Also recorded” adds a separate entry of the source.

What was measured:
[1] = Liver S9 stability (SD rat, beagle, human), overall; format: in vitro ADME
Liver S9 stability, dog = format: in vitro ADME; settings: beagle
Stability in HBSS buffer = format: physicochemical
[2] = Stability in simulated synovial fluid; format: physicochemical
DDR2 (h) = DDR2 (h) (Homo sapiens (Human), UniProt Q16832); assay: DDR2 kinase inhibition, [γ-33P]-ATP filter assay; format: biochemical
Procedure: (§1) DDR2 (h) was incubated with 8 mM MOPS pH 7.0, 0.2 mM EDTA, 250 μM KKSRGDYMTMQIG (SEQ TD NO: 2), 10 mM MnCl2, 10 mM magnesium acetate and [γ-33P]-ATP (specific activity and concentration as required). The reaction was initiated by the addition of the Mg/ATP mix. After incubation for 40 minutes at room temperature, the reaction was stopped by the addition of phosphoric acid to a concentration of 0.5%. An aliquot of the reaction was then spotted onto a filter and washed four times for 4 minutes in 0.425% phosphoric acid and once in methanol prior to drying and scintillation counting.

[3] = PK following IV dosing in male SD rats; settings: rat, in vivo, IV 1 mg/kg
Liver S9 stability, rat = format: in vitro ADME; settings: SD
Caco-2 = Caco-2 permeability; format: in vitro ADME
Caco-2 permeability = format: in vitro ADME; settings: human, Caco-2; Bi-directional; read-out: Caco-2 permeability, bidirectional efflux ratio
[4] = Solubility in pH 7.4 phosphate buffer; format: physicochemical; settings: aqueous buffer
p38-alpha = p38-alpha (Homo sapiens (Human), UniProt Q16539); assay: Binding to p38-alpha, % of DMSO control (kinase binding screen); settings: smaller numbers indicate stronger binding; screened at 1000 nM
From the text: (§2) Compounds that bind the kinase active site and directly (sterically) or indirectly (allosterically) prevent kinase binding to the immobilized ligand, will reduce the amount of kinase captured on the solid support. […] Screening “hits” are identified by measuring the amount of kinase captured in test versus control samples by using a quantitative qPCR method that detects the associated DNA label. Dissociation constants (Kds) for test compound-kinase interactions can be calculated by measuring the amount of kinase captured on the solid support as a function of the test compound concentration.
(§3) Kinase-tagged T7 phage strains were grown in parallel in 24-well blocks in an E. coli host derived from the BL21 strain. E. coli were grown to log-phase and infected with T7 phage from a frozen stock (multiplicity of infection=0.4) and incubated with shaking at 32° C. until lysis (90-150 minutes). The lysates were centrifuged (6,000×g) and filtered (0.2 μm) to remove cell debris. The remaining kinases were produced in HEK-293 cells and subsequently tagged with DNA for qPCR detection. Streptavidin-coated magnetic beads were treated with biotinylated small molecule ligands for 30 minutes at room temperature to generate affinity resins for kinase assays. The liganded beads were blocked with excess biotin and washed with blocking buffer (SeaBlock (Pierce), 1% BSA, 0.05% Tween 20, 1 mM DTT) to remove unbound ligand and to reduce non-specific phage binding. Binding reactions were assembled by combining kinases, liganded affinity beads, and test compounds in 1x binding buffer (20% SeaBlock, […], 0.05% Tween 20, 6 mM DTT). Test compounds were prepared as 40x stocks in 100% DMSO and directly diluted into the assay. All reactions were performed in polypropylene 384-well plates in a final volume of 0.02 mL. The assay plates were incubated at room temperature with shaking for 1 hour and the affinity beads were washed with wash buffer (1×PBS, 0.05% Tween 20). The beads were then re-suspended in elution buffer (1×PBS, 0.05% Tween […] non-biotinylated affinity ligand) and incubated at room temperature with shaking for 30 minutes. The kinase concentration in the eluates was measured by qPCR.
(§4) The compounds were screened at 1000 nM, and results for primary screen binding interactions were determined as “% Ctrl”. % Ctrl=[(test compound signal−positive control signal)/(negative control signal−positive control signal)]*100. Negative control was 100% DMSO. Test compounds were Compounds 1-4. Positive control was a control compound.
Table 3 provides binding affinity scores for p38-alpha as a percent relative to DMSO control. Smaller numbers indicate stronger binding.

DDR1 (h) = DDR1 (h) (Homo sapiens (Human), UniProt Q08345); assay: DDR1 kinase inhibition, [γ-33P]-ATP filter assay; format: biochemical
Procedure: as §1, with “DDR1” for “DDR2”, “KKKSPGEYVNIEFG” for “KKSRGDYMTMQIG”, “ID” for “TD”, “1),” for “2), 10 mM MnCl2,”

[5] = Liver S9 stability, human; format: in vitro ADME
Stability in plasma = format: in vitro ADME; settings: all animals
[6] = test system: 97 kinases (90 WT kinase and 7 mutants); assay: Kinase selectivity profiling (ScanEDGE, DiscoveRx) competition binding, qPCR readout; settings: for Selectivity Score S(1) / Selectivity Score S(10) / Selectivity Score S(35): number of hits/number of assays, excluding mutants, 1000 nM; for # of Hits, S(35) / # of Hits, S(10) / # of Hits, S(1): screened at 1000 nM; for # of Hits, S(35): kinases inhibited by >65%; for # of Hits, S(10): kinases inhibited by >90%; for # of Hits, S(1): kinases inhibited by >99%
From the text: as §2, §3, §4
Selectivity Score or S-score is a quantitative measure of compound selectivity for DDR2. It was calculated by dividing the number of kinases that compounds bind to by the total number of distinct kinases tested, excluding mutant variants. S=number of hits/number of assays. % Ctrl was used as a potency threshold. Selectivity score values of CS analogs provided in Table 2 reflect the number of kinases inhibited by >65% (S35), >90% (S10), or 99% (S1) by Compounds 1-4.

[7] = test system: articular cartilage of mouse knee joints; assay: DMM surgery injurious mouse model of osteoarthritis, knee articular cartilage; format: in vivo; settings: for Average articular cartilage score: treatment from 4 weeks after surgery
Procedure: Based on a pilot experiment,^1 the sample size of minimum 6 is required by the power analysis to achieve the specified confidence interval (95%) with at least 50% reduction of the score in the treatment group. Mouse knee joints were subjected to DMM surgery. Four weeks following the surgery, mice were treated with compound 3. Significant disparity was found in the progression of articular cartilage degeneration in knee joints with or without the treatment of compound 3 (FIG. 1).
The condition of the articular cartilage was also evaluated by the scoring system.^3 At 8 weeks after DMM surgery, the average scores for mice without and with treatment using compound 3 were 2.50 and 1.00, respectively. At 12 weeks following DMM surgery, the average scores were 4.75 for mice not treated with compound 3 and 2.83 for mice treated with compound 3. […] In addition, osteophytes and other abnormal morphology were not observed in the subchondral bone and synovial tissue in mice with or without the treatment with compound 3.

Mmp-13 = assay: Protein expression of Mmp-13 in articular cartilage after DMM (staining); format: in vivo, mouse; settings: 8 weeks after DMM
From the text: (§5) Inhibitory induction of Ddr2 and Mmp-13 in articular cartilage of knee joints was observed after treatment with the compound 3. The protein expressions of Ddr2 and Mmp-13 were examined in the articular cartilage of mouse knee joints at 8 weeks after DMM, with or without the treatment with compound 3.

DDR2 = assay: Protein expression of DDR2 in articular cartilage after DMM (staining); format: in vivo, mouse; settings: 8 weeks after DMM
From the text: as §5

Sequence of p38-alpha (Q16539 whole entry): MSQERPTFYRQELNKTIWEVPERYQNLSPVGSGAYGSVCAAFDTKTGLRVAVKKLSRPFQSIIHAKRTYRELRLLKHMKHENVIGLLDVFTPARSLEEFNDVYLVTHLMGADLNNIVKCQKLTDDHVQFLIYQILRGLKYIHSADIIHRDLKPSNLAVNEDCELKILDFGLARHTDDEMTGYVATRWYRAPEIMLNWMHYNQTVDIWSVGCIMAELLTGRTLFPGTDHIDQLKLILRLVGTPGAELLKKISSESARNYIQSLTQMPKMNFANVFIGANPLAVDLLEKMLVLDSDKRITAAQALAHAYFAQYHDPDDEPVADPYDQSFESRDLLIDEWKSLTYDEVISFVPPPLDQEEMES
Sequence of DDR1 (h) (Q08345 19-913): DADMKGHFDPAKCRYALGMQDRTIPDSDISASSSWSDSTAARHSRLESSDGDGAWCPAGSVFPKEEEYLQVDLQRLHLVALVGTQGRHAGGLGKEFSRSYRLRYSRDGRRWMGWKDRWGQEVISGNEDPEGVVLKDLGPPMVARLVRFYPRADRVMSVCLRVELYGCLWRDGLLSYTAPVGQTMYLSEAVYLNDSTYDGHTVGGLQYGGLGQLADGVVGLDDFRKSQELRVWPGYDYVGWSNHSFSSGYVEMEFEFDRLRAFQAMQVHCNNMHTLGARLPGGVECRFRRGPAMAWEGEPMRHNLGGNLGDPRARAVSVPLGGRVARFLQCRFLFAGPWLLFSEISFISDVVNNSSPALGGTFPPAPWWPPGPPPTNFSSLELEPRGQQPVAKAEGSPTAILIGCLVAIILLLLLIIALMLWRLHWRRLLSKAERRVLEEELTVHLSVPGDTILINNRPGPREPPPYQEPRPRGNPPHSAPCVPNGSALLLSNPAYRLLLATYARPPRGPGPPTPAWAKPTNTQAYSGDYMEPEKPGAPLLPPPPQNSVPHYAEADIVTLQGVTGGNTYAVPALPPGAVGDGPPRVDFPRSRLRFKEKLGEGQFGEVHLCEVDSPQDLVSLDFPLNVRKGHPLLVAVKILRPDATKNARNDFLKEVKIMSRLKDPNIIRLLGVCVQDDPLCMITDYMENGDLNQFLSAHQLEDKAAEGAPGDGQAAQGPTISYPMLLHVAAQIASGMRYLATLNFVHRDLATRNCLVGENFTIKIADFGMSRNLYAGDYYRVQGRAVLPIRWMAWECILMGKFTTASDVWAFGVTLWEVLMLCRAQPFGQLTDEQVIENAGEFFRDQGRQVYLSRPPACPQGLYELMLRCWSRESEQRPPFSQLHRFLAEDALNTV
Sequence of DDR2 (h) (Q16832 22-855): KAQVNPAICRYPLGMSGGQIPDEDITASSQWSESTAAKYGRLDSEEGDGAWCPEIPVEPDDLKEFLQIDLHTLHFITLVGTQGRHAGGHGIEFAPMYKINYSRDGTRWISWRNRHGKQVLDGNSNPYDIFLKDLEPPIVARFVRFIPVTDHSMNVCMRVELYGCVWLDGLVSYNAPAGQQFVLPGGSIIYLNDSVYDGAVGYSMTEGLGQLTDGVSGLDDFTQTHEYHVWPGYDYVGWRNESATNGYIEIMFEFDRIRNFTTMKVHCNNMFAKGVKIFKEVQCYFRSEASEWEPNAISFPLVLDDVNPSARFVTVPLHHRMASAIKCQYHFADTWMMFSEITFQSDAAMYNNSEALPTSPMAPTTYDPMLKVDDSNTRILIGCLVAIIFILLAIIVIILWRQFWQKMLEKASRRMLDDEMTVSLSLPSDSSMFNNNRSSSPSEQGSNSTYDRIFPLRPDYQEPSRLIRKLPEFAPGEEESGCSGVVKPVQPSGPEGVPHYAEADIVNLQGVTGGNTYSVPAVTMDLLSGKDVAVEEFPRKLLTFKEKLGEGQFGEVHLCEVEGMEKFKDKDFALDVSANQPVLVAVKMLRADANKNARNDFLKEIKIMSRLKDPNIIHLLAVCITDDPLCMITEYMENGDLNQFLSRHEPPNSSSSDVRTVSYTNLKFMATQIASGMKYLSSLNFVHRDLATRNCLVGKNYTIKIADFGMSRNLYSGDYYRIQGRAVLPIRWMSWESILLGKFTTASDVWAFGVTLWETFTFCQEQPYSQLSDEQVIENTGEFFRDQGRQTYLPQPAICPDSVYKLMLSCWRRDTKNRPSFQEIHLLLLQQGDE

Row | SMILES | Liver S9 stability (in words) [1] | Stability in HBSS (buffer) (Stability in HBSS buffer) | Stability in simulated synovial fluid [2] | IC50 (DDR2 (h)) | Caco-2 unidirectional permeability (in words) (Caco-2) | solubility [4] | Binding affinity score for p38-alpha as percent relative to DMSO control (p38-alpha) | IC50 (DDR1 (h)) | Stability in plasma (Stability in plasma) | Selectivity Score S(1) [6] | Selectivity Score S(10) [6] | Selectivity Score S(35) [6] | # of Hits, S(35) [6] | # of Hits, S(10) [6] | # of Hits, S(1) [6] | also measured
1 | Cc1ccc(O)cc1Nc1ccnc(Nc2cccc(S(C)(=O)=O)c2)n1 [Compound 1, 4-methyl-3-[[2-(3-methylsulfonylanilino)pyrimidin-4-yl]amino]phenol] | Rapid clearance | >120 min in buffer | >5 days | 260 nM | Very high | 16 µM (≈ 5.93 µg/mL) | 0.5 % Ctrl | 13 nM | >360 min (all | 0.078 | 0.244 | 0.322 | 29 | 22 | 7 | half-life (Liver S9 stability, dog): < 10 min; AUC(0-t) [3]: 122 ng·h/mL; C0 [3]: 548 ng/mL; clearance [3]: 137 mL/min/kg; half-life [3]: 19.1 min; Vd ([3]; read-out: VSS): 2.11 L/kg; half-life (Liver S9 stability, rat): 20 min; efflux ratio (Caco-2 permeability): 4.27; half-life [5]: < 10 min
2 | Cc1ccc(O)cc1Nc1ccnc(Nc2ccc(C(N)=O)cc2)n1 [Compound 2, 4-[[4-(5-hydroxy-2-methyl-anilino)pyrimidin-2-yl]amino]benzamide] | Rapid clearance | >120 min in buffer | >5 days | 156 nM | Very high | 770 µM (≈ 258 µg/mL) | 30 % Ctrl | 9 nM | >360 min (all | 0.033 | 0.089 | 0.244 | 22 | 8 | 3 | –
3 | COc1ccc(S(N)(=O)=O)cc1Nc1nccc(N(C)c2ccc(N)cc2)n1 [Compound 3, 3-[[4-(4-amino-N-methyl-anilino)pyrimidin-2-yl]amino]-4-methoxy-benzenesulfonamide] | Very stable | >120 min in buffer | >5 days | > 3300 nM | Very high | 13.3 µM (≈ 5.33 µg/mL) | 83 % Ctrl | 55 nM | >360 min (all | 0.056 | 0.089 | 0.178 | 16 | 8 | 5 | Cartilage damage score, treated versus untreated mice ([7]; 8 and 12 weeks after DMM): significant differences; Morphology of articular cartilage ([7]; 8 weeks after DMM surgery): localized chondrocyte clusters, but no fibrillation; also recorded: only chondrocyte clusters; Average articular cartilage score ([7]; 8 weeks after DMM surgery): 1.00; Morphology of articular cartilage ([7]; 12 weeks after DMM surgery): only localized absence of the proteoglycans; also recorded: only localized proteoglycan degradation; Average articular cartilage score ([7]; 12 weeks after DMM surgery): 2.83; Progressive process of articular cartilage degeneration ([7]; DMM-induced, mouse knee joints): Significant delay; also recorded: dramatically delayed; Osteophytes and other abnormal morphology in subchondral bone and synovial tissue ([7]; mice with or without treatment): not observed; Mmp-13 positive (stained) cells in articular cartilage (Mmp-13): dramatically reduced; also recorded: significant reduction; DDR2 positive (stained) cells in articular cartilage (DDR2): dramatically reduced; also recorded: significant reduction
4 | COc1cc(Nc2nccc(Nc3ccc(N)cc3)n2)cc(S(C)(=O)=O)c1 [Compound 4, N4-(4-aminophenyl)-N2-(3-methoxy-5-(methylsulfonyl)phenyl)pyrimidine-2,4-diamine] | Very stable | >120 min in buffer | >5 days | 1570 nM | – | 213 µM (≈ 82.1 µg/mL) | 87 % Ctrl | 66 nM | >360 min (all | 0.022 | 0.122 | 0.233 | 21 | 11 | 2 | –
